In US11980596B2 (priority 2017, dated 2024):

Key:
adult subjects with TRD = details: post dose
Procedure: The CADSS is an instrument for the measurement of present-state dissociative symptoms, and was administered to assess treatment-emergent dissociative symptoms. The CADSS consists of 23 subjective items, divided into 3 components: Depersonalization (Items 3 to 7, 20, and 23), derealization (Items 1, 2, 8 to 13, 16 to 19, and 21) and amnesia (Items 14, 15, and 22). Participant's responses were coded on a 5-point scale (0=not at all through to 4=extremely).
The Clinician Administered Dissociative States Scale (CADSS) was measured prior to the start of each dose, at 40 minutes, and 1.5 hours postdose.

[1] = test system: patients with treatment-resistant depression (TRD); experiment: Adverse events (Example 7); format: in vivo, human; details: double-blind
Procedure: Adverse events were monitored throughout the study. Other safety assessments (i.e., laboratory tests, vital signs, physical examination) were performed at pre-specified time points. Vital signs, the Clinician Administered Dissociative States Scale (CADSS; Bremner, “Measurement of dissociative states with the clinician-administered dissociative states scale (CADSS)”, J. Traumatic Stress, 1998, 11(1):125-136), and the 4-item positive symptom subscale from the Brief Psychiatric Rating Scale (BPRS; Overall, “The Brief Psychiatric Rating Scale. Psychological Reports”, 1962, 10:799-812) were assessed pre-dose, at 40 minutes, and 2 hours post-dose.
Safety data were analyzed in Period 1, Period 2, double-blind, and open-label data sets, for all subjects receiving at least 1 dose of study medication.

CN[C@]1(c2ccccc2Cl)CCCCC1=O [esketamine, (S)-2-(2-chlorophenyl)-2-(methylamino)cyclohexanone]
2: Dissociative disorder, number of participants ([1]; esketamine 28 mg, N = 19) | Dysgeusia, number of participants ([1]; esketamine 28 mg, N = 19) | Feeling abnormal, number of participants ([1]; esketamine 28 mg, N = 19) | Hypersomnia, number of participants ([1]; esketamine 28 mg, N = 19) | Nausea, number of participants ([1]; esketamine 28 mg, N = 19) | Vertigo, number of participants ([1]; esketamine 28 mg, N = 19) | Hypertension, number of participants ([1]; esketamine 56 mg, N = 20) | Insomnia, number of participants ([1]; esketamine 56 mg, N = 20) | Nasal discomfort, number of participants ([1]; esketamine 56 mg, N = 20) | Polyuria, number of participants ([1]; esketamine 56 mg, N = 20) | Sedation, number of participants ([1]; esketamine 56 mg, N = 20)
(35) %: Dissociation, % of participants ([1]; esketamine 56 mg, N = 20)
16: Total with events, number of participants ([1]; esketamine 56 mg, N = 20)
7: Dissociation, number of participants ([1]; esketamine 56 mg, N = 20)
(5) %: Hypoesthesia oral, % of participants ([1]; esketamine 28 mg, N = 19) | Sedation, % of participants ([1]; esketamine 28 mg, N = 19) | Throat irritation, % of participants ([1]; esketamine 28 mg, N = 19) | Dissociative disorder, % of participants ([1]; esketamine 56 mg, N = 20) | Feeling abnormal, % of participants ([1]; esketamine 56 mg, N = 20) | Oropharyngeal pain, % of participants ([1]; esketamine 56 mg, N = 20) | Vertigo, % of participants ([1]; esketamine 56 mg, N = 20)
(80) %: Total with events, % of participants ([1]; esketamine 56 mg, N = 20)
11: Total with events, number of participants ([1]; esketamine 28 mg, N = 19)
(20) %: Hypoesthesia oral, % of participants ([1]; esketamine 56 mg, N = 20) | Nausea, % of participants ([1]; esketamine 56 mg, N = 20)
(47) %: Dizziness, % of participants ([1]; esketamine 84 mg, N = 17)
≤ 1.5 h: Dissociative and perceptual change symptoms (CADSS) resolved by (adult subjects with TRD)
(40) %: Dizziness, % of participants ([1]; esketamine 56 mg, N = 20)
(10) %: Hypertension, % of participants ([1]; esketamine 56 mg, N = 20) | Insomnia, % of participants ([1]; esketamine 56 mg, N = 20) | Nasal discomfort, % of participants ([1]; esketamine 56 mg, N = 20) | Polyuria, % of participants ([1]; esketamine 56 mg, N = 20) | Sedation, % of participants ([1]; esketamine 56 mg, N = 20)
4: Dizziness, number of participants ([1]; esketamine 28 mg, N = 19) | Hypoesthesia oral, number of participants ([1]; esketamine 56 mg, N = 20) | Nausea, number of participants ([1]; esketamine 56 mg, N = 20) | Dissociation, number of participants ([1]; esketamine 84 mg, N = 17) | Dissociative disorder, number of participants ([1]; esketamine 84 mg, N = 17)
8: Dizziness, number of participants ([1]; esketamine 56 mg, N = 20) | Dizziness, number of participants ([1]; esketamine 84 mg, N = 17)
(21) %: Dizziness, % of participants ([1]; esketamine 28 mg, N = 19)
(11) %: Dissociative disorder, % of participants ([1]; esketamine 28 mg, N = 19) | Dysgeusia, % of participants ([1]; esketamine 28 mg, N = 19) | Feeling abnormal, % of participants ([1]; esketamine 28 mg, N = 19) | Hypersomnia, % of participants ([1]; esketamine 28 mg, N = 19) | Nausea, % of participants ([1]; esketamine 28 mg, N = 19) | Vertigo, % of participants ([1]; esketamine 28 mg, N = 19)
6: Headache, number of participants ([1]; esketamine 28 mg, N = 19)
1: Hypoesthesia oral, number of participants ([1]; esketamine 28 mg, N = 19) | Sedation, number of participants ([1]; esketamine 28 mg, N = 19) | Throat irritation, number of participants ([1]; esketamine 28 mg, N = 19) | Dissociative disorder, number of participants ([1]; esketamine 56 mg, N = 20) | Feeling abnormal, number of participants ([1]; esketamine 56 mg, N = 20) | Oropharyngeal pain, number of participants ([1]; esketamine 56 mg, N = 20) | Vertigo, number of participants ([1]; esketamine 56 mg, N = 20)
(24) %: Dissociation, % of participants ([1]; esketamine 84 mg, N = 17) | Dissociative disorder, % of participants ([1]; esketamine 84 mg, N = 17)
(32) %: Headache, % of participants ([1]; esketamine 28 mg, N = 19)
(15) %: Dysgeusia, % of participants ([1]; esketamine 56 mg, N = 20) | Headache, % of participants ([1]; esketamine 56 mg, N = 20)
0: Dissociation, number of participants ([1]; esketamine 28 mg, N = 19) | Hypertension, number of participants ([1]; esketamine 28 mg, N = 19) | Insomnia, number of participants ([1]; esketamine 28 mg, N = 19) | Nasal discomfort, number of participants ([1]; esketamine 28 mg, N = 19) | Oropharyngeal pain, number of participants ([1]; esketamine 28 mg, N = 19) | Polyuria, number of participants ([1]; esketamine 28 mg, N = 19) | Tunnel vision, number of participants ([1]; esketamine 28 mg, N = 19) | Vision blurred, number of participants ([1]; esketamine 28 mg, N = 19) | Hypersomnia, number of participants ([1]; esketamine 56 mg, N = 20) | Throat irritation, number of participants ([1]; esketamine 56 mg, N = 20) | Tunnel vision, number of participants ([1]; esketamine 56 mg, N = 20) | Vision blurred, number of participants ([1]; esketamine 56 mg, N = 20)
3: Dysgeusia, number of participants ([1]; esketamine 56 mg, N = 20) | Headache, number of participants ([1]; esketamine 56 mg, N = 20)
(58) %: Total with events, % of participants ([1]; esketamine 28 mg, N = 19)
